# Reference: PubChem BioAssay (NCI)
#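 1) Cells in 96-well plates. 2) Compound, 48 h, 5 concentrations. 3) Linear interpolation between surrounding doses. 4) Unreached endpoint = highest concentration. At the TGI there is no net growth.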
# What was measured:
# Assay in all cases: NCI tumour cell line growth inhibition, 48 h
# [1] = tested on: 786-0 renal
# [2] = tested on: A498 renal
# [3] = tested on: A549 NSCLC
# [4] = tested on: ACHN renal
# [5] = tested on: CAKI-1 renal
# [6] = tested on: CCRF-CEM leukemia
# [7] = tested on: COLO 205 colon
# [8] = tested on: DU-145 prostate
# [9] = tested on: EKVX NSCLC
# [10] = tested on: HCC-2998 colon
# [11] = tested on: HCT-116 colon
# [12] = tested on: HCT-15 colon
# [13] = tested on: HL-60(TB) leukemia
# [14] = tested on: HOP-62 NSCLC
# [15] = tested on: HOP-92 NSCLC
# [16] = tested on: HS 578T breast
# [17] = tested on: HT29 colon
# [18] = tested on: IGROV1 ovarian
# [19] = tested on: K-562 leukemia
# [20] = tested on: KM12 colon
# [21] = tested on: LOX IMVI melanoma
# [22] = tested on: M14 melanoma
# [23] = tested on: MALME-3M melanoma
# [24] = tested on: MCF7 breast
# [25] = tested on: MDA-MB-231 breast
# [26] = tested on: MDA-MB-435
# [27] = tested on: MDA-N
# [28] = tested on: MOLT-4 leukemia
# [29] = tested on: NCI-H226 lung
# [30] = tested on: NCI-H23 lung
# [31] = tested on: NCI-H460 lung
# [32] = tested on: NCI-H522 lung
# [33] = tested on: NCI/ADR-RES ovarian
# [34] = tested on: OVCAR-3 ovarian
# [35] = tested on: OVCAR-4 ovarian
# [36] = tested on: OVCAR-5 ovarian
# [37] = tested on: OVCAR-8 ovarian
# [38] = tested on: PC-3 prostate
# [39] = tested on: RPMI-8226 leukemia
# [40] = tested on: RXF 393 renal
# [41] = tested on: SF-268 CNS
# [42] = tested on: SF-295 CNS
# [43] = tested on: SF-539 CNS
# [44] = tested on: SK-MEL-2 melanoma
# [45] = tested on: SK-MEL-28 melanoma
# [46] = tested on: SK-MEL-5 melanoma
# [47] = tested on: SK-OV-3 ovarian
# [48] = tested on: SN12C renal
# [49] = tested on: SNB-19 CNS
# [50] = tested on: SNB-75 CNS
# [51] = tested on: SR leukemia
# [52] = tested on: SW-620 colon
# [53] = tested on: T-47D breast
# [54] = tested on: TK-10 renal
# [55] = tested on: U251 CNS
# [56] = tested on: UACC-257 melanoma
# [57] = tested on: UACC-62 melanoma
# [58] = tested on: UO-31 renal
# [59] = tested on: BT-549 breast
smiles,measurement,setting,value
CC(NC1=NCCO1)c1cccc([N+](=O)[O-])c1 (stereo unspecified),TGI,[1],> 100 µM
same,TGI,[2],> 100 µM
same,TGI,[3],> 100 µM
same,TGI,[4],> 100 µM
same,TGI,[5],> 100 µM
same,TGI,[6],> 100 µM
same,TGI,[7],> 100 µM
same,TGI,[8],> 100 µM
same,TGI,[9],> 100 µM
same,TGI,[10],> 100 µM
same,TGI,[11],> 100 µM
same,TGI,[12],> 100 µM
same,TGI,[13],> 100 µM
same,TGI,[14],> 100 µM
same,TGI,[15],> 100 µM
same,TGI,[16],> 100 µM
same,TGI,[17],> 100 µM
same,TGI,[18],> 100 µM
same,TGI,[19],> 100 µM
same,TGI,[20],> 100 µM
same,TGI,[21],> 100 µM
same,TGI,[22],> 100 µM
same,TGI,[23],> 100 µM
same,TGI,[24],> 100 µM
same,TGI,[25],> 100 µM
same,TGI,[26],> 100 µM
same,TGI,[27],> 100 µM
same,TGI,[28],> 100 µM
same,TGI,[29],> 100 µM
same,TGI,[30],> 100 µM
same,TGI,[31],> 100 µM
same,TGI,[32],> 100 µM
same,TGI,[33],> 100 µM
same,TGI,[34],> 100 µM
same,TGI,[35],> 100 µM
same,TGI,[36],> 100 µM
same,TGI,[37],> 100 µM
same,TGI,[38],> 100 µM
same,TGI,[39],> 100 µM
same,TGI,[40],> 100 µM
same,TGI,[41],> 100 µM
same,TGI,[42],> 100 µM
same,TGI,[43],> 100 µM
same,TGI,[44],> 100 µM
same,TGI,[45],> 100 µM
same,TGI,[46],> 100 µM
same,TGI,[47],> 100 µM
same,TGI,[48],> 100 µM
same,TGI,[49],> 100 µM
same,TGI,[50],> 100 µM
same,TGI,[51],> 100 µM
same,TGI,[52],> 100 µM
same,TGI,[53],> 100 µM
same,TGI,[54],> 100 µM
same,TGI,[55],> 100 µM
same,TGI,[56],> 100 µM
same,TGI,[57],> 100 µM
same,TGI,[58],> 100 µM
Cc1cc(NS(=O)(=O)c2ccc(NC(=O)c3cccc4c(NNc5ccc(S(=O)(=O)N=C(N)N)cc5)c5ccccc5nc34)cc2)no1,TGI,[1],> 100 µM
same,TGI,[3],> 100 µM
same,TGI,[4],> 100 µM
same,TGI,[59],> 100 µM
same,TGI,[5],> 100 µM
same,TGI,[6],82.3 µM
same,TGI,[7],> 100 µM
same,TGI,[8],> 100 µM
same,TGI,[9],93.2 µM
same,TGI,[10],> 100 µM
same,TGI,[11],> 100 µM
same,TGI,[12],> 100 µM
same,TGI,[13],75.6 µM
same,TGI,[14],> 100 µM
same,TGI,[15],92.7 µM
same,TGI,[16],> 100 µM
same,TGI,[17],92.6 µM
same,TGI,[18],> 100 µM
same,TGI,[19],> 100 µM
same,TGI,[20],> 100 µM
same,TGI,[21],> 100 µM
same,TGI,[22],> 100 µM
same,TGI,[23],> 100 µM
same,TGI,[24],> 100 µM
same,TGI,[25],> 100 µM
same,TGI,[26],> 100 µM
same,TGI,[27],> 100 µM
same,TGI,[28],74.9 µM
same,TGI,[29],98.5 µM
same,TGI,[30],> 100 µM
same,TGI,[31],> 100 µM
same,TGI,[32],96.6 µM
same,TGI,[33],> 100 µM
same,TGI,[34],> 100 µM
same,TGI,[35],> 100 µM
same,TGI,[36],> 100 µM
same,TGI,[37],> 100 µM
same,TGI,[38],> 100 µM
same,TGI,[39],> 100 µM
same,TGI,[40],> 100 µM
same,TGI,[41],> 100 µM
same,TGI,[42],> 100 µM
same,TGI,[43],> 100 µM
same,TGI,[44],64.2 µM
same,TGI,[45],> 100 µM
same,TGI,[46],> 100 µM
same,TGI,[47],> 100 µM
same,TGI,[48],> 100 µM
same,TGI,[49],> 100 µM
same,TGI,[50],88.3 µM
same,TGI,[51],> 100 µM
same,TGI,[52],> 100 µM
same,TGI,[53],> 100 µM
same,TGI,[54],> 100 µM
same,TGI,[55],64.7 µM
same,TGI,[56],> 100 µM
same,TGI,[57],> 100 µM
same,TGI,[58],> 100 µM
